Laboratory results published in US20160015725A1, “METHODS OF CONTROLLING TUMOR BIOENERGETICS NETWORKS” (THE WISTAR INSTITUTE OF ANATOMY AND BIOLOGY, priority 2012, published 2016).

How the values were obtained:
Format in all cases: cell-based, human
[1] = test system: multiple tumor cell types; test: ATP production in tumor cells (luciferin-luciferase)
Description: Intracellular ATP concentrations were measured by the luciferin—luciferase method using an ATP measuring kit (Biochain). The ATP concentration in each extract was measured with a microplate luminometer (Beckman Coulter) against standard ATP solutions used as reference. In some experiments, PC3 or LN229 cells were preincubated with sodium pyruvate for 7 h in the presence of vehicle or Gamitrinib before determination of ATP production.

tumor cells [2] = test: ER UPR markers (Western blotting, Xbp1 splicing, RT-qPCR); settings: for effect on Gamitrinib-induced AMPK phosphorylation and ER stress/UPR markers: agent added to Gamitrinib; for ER UPR markers (CHOP, C/EBPβ, Grp78): tumor cells, Western blotting
[3] = test system: AMP-activated kinase (AMPK); test: AMPK phosphorylation in tumor cells, Western blotting; settings: tumor cells
PC3 cells = test: ER stress luciferase-promoter reporter assay; settings: PC3, 20 h
Description: In another series of experiments, PC3 cells were transfected with control or Grp78-directed siRNA, and analyzed for cell viability after 24 h by an MTT assay. For promoter analysis, PC3 cells were plated in triplicate onto 48-well plates at 1.4×10^4 cells/well, and cotransfected with Firefly Luciferase-reporters for IRE1, ATF6, PERK or CHOP and a constitutive reporter (pTK-Renilla Luc) in a 10:1 ratio using X-tremeGENE reagent (Roche). After 24 h, cells were treated with vehicle, Gamitrinib, tunicamycin or 2-DG and analyzed after 20 h for Firefly and Renilla luciferase activity using a Dual Luciferase Reporter Assay System (Promega). Transfection of plasmid DNAs was carried out with lipofectamine 2000 (Invitrogen) according to published protocols. A PPIase-defective CypD H168Q mutant cDNA was generated by Quick-Change site-directed mutagenesis (Stratagene) using primers 5′-[…]-3′ (forward) and 5′-[…]-3′ (reverse) (mutated sequences are bolded). The inserted mutation (bolded) was confirmed by DNA sequencing, and cloned in a pcDNA3.0 expression vector (Invitrogen) for reconstitution experiments in CypD−/− MEFs.

mTORC1 = mTORC1 signaling in tumor cells, Western blotting
[4] = test system: V600E mutant BRAF melanoma cells; test: AMPK and autophagy signaling in mutant BRAF melanoma cells
Description: (§1) Human glioblastoma LN229, prostate adenocarcinoma PC3 or LNCaP cells, or normal NIH3T3 fibroblasts were obtained from the American Tissue Culture Collection (ATCC, Manassas, Va.), and maintained in culture according to the supplier's specifications. The following wild type (WT) BRAF N-Ras mutant melanoma cells WM852 and WM1366, and melanoma cells carrying a V600E activating mutation in the BRAF oncogene, 451Lu, Me11617 and WM983B were used in this study. WT or CypD knockout Mouse Embryonic Fibroblasts (MEFs, CypD−/−) were characterized earlier 40. In some experiments, CypD−/− MEFs were stably transfected with control plasmid, WT CypD or peptidyl prolyl isomerase (PPIase)-deficient H168Q CypD mutant cDNA, and analyzed for differential recruitment of HK-II to mitochondrial or cytosolic fractions.
(§2) For Western blotting, protein lysates were prepared from the different cell types in RIPA Buffer (150 mM NaCl, 1.0% Triton X-100, 0.5% sodium deoxycholate, 0.1% SDS, 50 mM Tris, pH 8.0) containing EDTA-free Protease Inhibitor Cocktail (Roche) and Phosphatase Inhibitor Cocktail 2 and 3 (Sigma Aldrich). Equal amounts of protein lysates were separated by SDS gel electrophoresis, transferred to PVDF membranes and incubated with primary antibodies of various specificities. Protein bands were detected by chemiluminescence.
(§3) Samples were imaged using a Leica TCS SP2 confocal microscope. For determination of autophagy, cells under the various conditions tested were harvested after 12 h, and analyzed with an antibody to […] (LC3) by Western blotting.

tumor cells [5] = test: Autophagy (LC3 conversion, LC3-CFP puncta)
Description: LN229 cells were transfected with various siRNAs, and mixed after 24 h with plasmid encoding cyan fluorescent protein (CFP) fused to human […] (LC3) cDNA in the presence of Lipofectamine 2000 Transfection Reagent (Invitrogen). After 48 h, transfected cells were fixed in 4% paraformaldehyde for 15 min at 37° C., washed, and examined by fluorescence microscopy (Nikon, E600). The numbers of CFP-LC3 punctate dots per cell was determined from three independent experiments. A minimum of 50 CFP-LC3-positive cells assessed from at least ten random fields per sample were counted in triplicate per each condition.
as §3

hexokinase = test: Hexokinase activity in mitochondrial fractions of treated cells; settings: LN229 mitochondrial fractions, 5 h
Description: HK activity in LN229 cells was measured as the total glucosephosphorylating activity using a standard G6PDH-coupled assay kit (BioVision). Mitochondria isolated from Gamitrinib- or 17-AAG-treated LN229 cells, or cultures transfected with various siRNAs were homogenized in cold PBS, followed by centrifugation at 1000 g for 10 min at 4° C. HK activity was determined by analysis of G6P-dependent conversion of NADP to NADPH in the presence of excess […] in the presence of 2 mM glucose, and quantification of absorbance at 450 nm. All assays were performed at 25° C. under conditions of linear HK-limited NADPH formation.

LN229 cells = test: Cell viability by MTT
Description: Various cell types were seeded in triplicate onto 96-well plates at 4×10^3 cells/well, treated with vehicle, Gamitrinib or 17-AAG (0-20 μM) for 12 h, and analyzed for changes in metabolic activity by an MTT assay. For determination of apoptosis, LN229 cells ([…]) were labeled for annexin V and propidium iodide (PI) (BD Biosciences), and analyzed by multiparametric flow cytometry (BD).

WT BRAF melanoma cells = test: AMPK and autophagy signaling in WT BRAF melanoma cells; settings: WT BRAF melanoma cells
Description: as §1, §2, §3

**Q.** Which results are given for `CC(=O)C(=O)[O-].[Na+]` [sodium pyruvate, reference compound]?
**A.** rescue of ATP production in Gamitrinib-treated tumor cells ([1]; exogenous addition, PC3 or LN229, 7 h): failed to rescue ATP production; effect on Gamitrinib-induced AMPK phosphorylation and ER stress/UPR markers (tumor cells [2]): did not affect

**Q.** With `O=CC[C@@H](O)[C@H](O)[C@H](O)CO` [2-DG, 2-deoxy-D-glucose] as the compound, how does the AMPK phosphorylation [3] read?
**A.** AMPK activation

**Q.** What about the “minimal CHOP promoter activity” value (PC3 cells) of the same compound?
**A.** transcriptionally induced

**Q.** What about the “transcriptional activation of response elements of IRE-1, ATF-6 and PERK” value (PC3 cells) of the same compound?
**A.** comparably induced transcriptional activation

**Q.** And the “phosphorylation of mTOR, 4EBP1 and p70S6 (mTORC1)” value (shortened to “phosphorylation of mTOR”) (mTORC1)?
**A.** suppression of mTORC1 4EPB1 and p70S6 phosphorylation

**Q.** And the “ER UPR markers (CHOP, C/EBPβ, Grp78)” value (tumor cells [2])?
**A.** concentration (FIG. 14b)- and time (FIG. 14c)-dependent upregulation of ER UPR

**Q.** With `CC(=O)N[C@@H](CS)C(=O)O` [NAC, N-acetyl-L-cysteine, reference compound] as the compound, how does the “effect on Gamitrinib-induced AMPK phosphorylation and ER stress/UPR markers” value (tumor cells [2]) read?
**A.** did not affect

**Q.** What does the source list for tunicamycin?
**A.** minimal CHOP promoter activity (PC3 cells): transcriptionally induced; transcriptional activation of response elements of IRE-1, ATF-6 and PERK (PC3 cells): comparably induced transcriptional activation; IRE-1 and CHOP expression (tumor cells [2]; control ER stressor): comparable induction of IRE-1 and CHOP expression

**Q.** For `N#CC(=C(/N)Sc1ccccc1N)/C(C#N)=C(\N)Sc1ccccc1N` [U0126, reference compound], which “AMPK phosphorylation after Gamitrinib treatment” value ([4]; mutant BRAF melanoma cells, agent added to Gamitrinib) is on record?
**A.** partially restored AMPK phosphorylation

**Q.** `N#CC(C#N)=NNc1cccc(Cl)c1` [CCCP, carbonyl cyanide 3-chlorophenylhydrazone, reference compound] was tested. Which AMPK phosphorylation [3] did it give?
**A.** time-dependent phosphorylation of AMPK

**Q.** And the “phosphorylation of mTOR” value (mTORC1)?
**A.** inhibition of 4EBP1 phosphorylation

**Q.** What about the “ER UPR markers (CHOP, C/EBPβ, Grp78)” value (tumor cells [2]) of the same compound?
**A.** upregulation of CHOP, C/EBPβ, and Grp78

**Q.** What about the “autophagy (LC3-II conversion)” value (tumor cells [5]) of the same compound?
**A.** stimulation of LC3-II conversion

**Q.** Which AMPK phosphorylation [3] does the source give for `C=CCNC1=C2C[C@@H](C)C[C@H](OC)[C@H](O)[C@@H](C)/C=C(\C)[C@H](OC(N)=O)[C@@H](OC)/C=C\C=C(/C)C(=O)NC(=CC1=O)C2=O` [17-AAG, 17-allylamino demethoxygeldanamycin, reference compound] here?
**A.** not

**Q.** What about the hexokinase activity (hexokinase) of the same compound?
**A.** had no effect

**Q.** What about the “phosphorylation of mTOR” value (mTORC1) of the same compound?
**A.** had no effect

**Q.** And the ATP production ([1]; tumor cell types, non-cytotoxic concentrations, 5 h)?
**A.** had no effect on ATP production

**Q.** And the “tumor cell viability, combination with 3-MA” value (LN229 cells; 17-AAG plus 3-MA vs each treatment alone)?
**A.** did not decrease tumor cell viability compared to each treatment alone

**Q.** What about the AMPK phosphorylation (WT BRAF melanoma cells) of the same compound?
**A.** had no effect on AMPK activation

**Q.** And the AMPK activation ([4]; BRAF mutant melanoma cells)?
**A.** had no effect on AMPK activation

**Q.** With `Cn1cnc(N)c2ncnc1-2` [3-MA, 3-methyladenine] as the compound, how does the “tumor cell killing mediated by sub-optimal concentrations of Gamitrinib” value (LN229 cells; agent added to Gamitrinib) read?
**A.** enhanced tumor cell killing mediated by sub-optimal concentrations of Gamitrinib
